Laboratory results published in patent US6451853B1, “Small molecules that elicit a polarized Th1 response and for modulation of cellular immunity” (Dovetail Technologies, Inc, priority 1998, dated 2002).
Several values for one entry are separate records, joined by “and”; a condition that tells them apart may be missing. Equal entries are not always repeated.

Columns and labels:
[1] = air and aqueous solutions; cited from earlier work
[2] = test system: surface TNF alpha on human monocytes; experiment: Surface TNF alpha expression on monocytes by FACS (CD14+ cells); assay type: cell-based; conditions: all drugs 20 mM
Excerpt: The effect of NAC and BT, alone or in combination, on surface TNF alpha expression by stimulated or unstimulated monocytes (prepared from PBM) was examined. […] Table 6. While only a small proportion of T cells from each donor were responsive to the combination NAC/BT, the effect on surface TNF alpha expression in monocytes was significant.

[3] = test system: soluble TNF alpha release from human lymphocytes; experiment: Soluble TNF alpha in supernatants by ELISA; conditions: Media (unstimulated); drugs 20 mM; ELISA standard curve in pg/mL, unit not given
[4] = test system: surface TNF alpha on human T cells; experiment: Surface TNF alpha expression on T cells by FACS (gating on CD3+ cells); conditions: for surface TNF alpha, overall MFI: 20 mM NAC without or with 20 mM BT; for surface TNF alpha expression, Time Course: each drug 20 mM; for TNF alpha in T cells, % Total / TNF alpha in T cells, MFI: marker All
PBMC = experiment: CD69 expression by flow cytometry, PBMC T cells; assay type: cell-based; conditions: for CD69 Expression, MFI of 10,000 events: PBMC
Method: (§1) CD69 Expression. CD69 expression was assessed by flow cytometry as described previously. […] CD69 is one of the earliest stimulation markers expressed on T cells upon activation (Testi et al., 1994). The cross-linking of this marker is believed to generate extracellular Ca++ influxes and activate phospholipase A2, and thus it is believed to be an integral part of the activation process (Testi et al., 1994).

human PBMCs [5] = experiment: Cell cycle analysis; assay type: cell-based; conditions: 18 and 24 hours of exposure
[6] = test system: Cytokine mRNA from T cells (PBMC); experiment: RNase protection assay of cytokine mRNA in PBMC (T cells), with or without PMA/ionomycin; conditions: 6 hours, unit not given
HUT-78 T cell line = experiment: CD69 expression by flow cytometry, HUT-78; assay type: cell-based
Method: as §1

human PBMCs [7] = experiment: PBMC proliferation by 3H-thymidine incorporation; assay type: cell-based
Method: Treatment with 0.14 mM Taurox-SB increased proliferation of human PBMCs with and without PHA, as detected by incorporation of 3H-thymidine (Table 18).
Human PBMCs are obtained through collection of peripheral blood and isolation over Ficoll 1077. The cells are counted and 5×10^5 cells are plated in triplicate in 96 well plates in 100 μl of media (RPMI 1640, 20% FBS) containing specified conditions. These cells are then allowed to incubate for 48 hours. After this incubation 1 μCi of ^3H-Thymidine is added in a […] volume. The plates are incubated an additional 24 hours and harvested on a Tomtec plate harvester and the filtermat read in a scintillation counter. Many studies have been performed using the drugs in combination with PHA (T cell stimulant (mitogen)) obtained from Sigma.

MOLT-4 T cell line = experiment: CD69 expression by flow cytometry, MOLT-4; assay type: cell-based
Method: as §1

Cloudman S-91 cells = experiment: CTL lysis of Cloudman S-91 targets (CMFDA leakage); assay type: cell-based, DBA/2 mouse; conditions: CTLs generated using 0.14 M Taurox-SB in addition to IL-6/IL-12; 10:1 effector:target, 16 hours
Method: The analysis was extended to include killing of the Cloudman S-91 targets used for the CTL generation. Cloudman S-91 cells (5×104) were loaded with chloromethylfluorescein diacetate (CMFDA) and incubated for 16 hours with CTLs generated from DBA/2 splenocytes at a 10:1 effector:target ratio. Lysis was detected by leakage of the CMFDA.

[8] = test system: surface TNF alpha on human monocytes; experiment: Surface TNF alpha expression on monocytes by FACS (CD14+ cells); assay type: cell-based; conditions: for Monocyte TNF alpha surface expression, % Positive: fluorescence greater than isotype control peak
T cells = experiment: Ca++ mobilization kinetics with fluo-3AM; assay type: cell-based; conditions: final concentrations 0.14 mM to 1.4 mM; eight minute time period; data not shown
Method: The kinetics of Ca++ mobilization was observed using the dye fluo-3AM which is a membrane permeable Ca++ indicator which becomes increasingly fluorescent upon Ca++ binding. A baseline reading indicates the resting state of Ca++, followed by injection of Taurox-SB to yield final concentrations of 0.14 mM to 1.4 mM. […] PHA was added as a positive control for the elicitation of a Ca++ response (Greimers et al., 1996). […] (Data not shown.) The role of the second messenger response could be varied, as many proteins are activated by Ca++-regulated intracellular pathways. Second messengers may serve to enhance production of cytokines by immune cells.

[9] = With PMA + Ionomycin stimulation, 1.4 mM TSB, 16 hours
[10] = With PMA + Ionomycin stimulation, .14 mM TSB, 16 hours
[11] = Without stimulation, 1.4 mM TSB, 16 hours
[12] = Without stimulation, .14 mM TSB, 16 hours
[13] = Taurox-SB 14 nM, no stimulation
[14] = Taurox-SB 14 nM, with stimulation
[15] = Taurox-SB 1.4 uM, no stimulation
[16] = Taurox-SB 1.4 uM, with stimulation
[17] = Taurox-SB 1.4 mM, no stimulation
[18] = Taurox-SB 1.4 mM, with stimulation

Question: For `NCCC(=O)NCCS` [beta-aletheine], which stability [1] is on record?
Answer: unstable in air and aqueous solutions

Question: What does the source list for `CC(=O)N[C@@H](CS)C(=O)O` [NAC, N-acetyl-L-cysteine, reference compound]?
Answer: surface TNF alpha expression ([2]; stimulated monocytes): relative ineffectiveness; surface TNF alpha expression ([2]; unstimulated monocytes): not upregulated; Soluble TNF [3]: 15; surface TNF alpha, overall MFI ([4]; NAC + Stimulation (1 micromolar Ionomycin, 10 ng/ml PMA), individual donors): 25.32 and 31.12 and 95.45 and 53.48 and 17.39 and 12.59; surface TNF alpha, overall MFI ([4]; NAC + Stimulation with 1 ng PMA): 11.31 and 12.76; surface TNF alpha expression, Time Course ([4]; Pma/iono, 6 hours): 82; surface TNF alpha expression, Time Course ([4]; Pma/iono, 16 hours): 93; surface TNF alpha expression, Time Course ([4]; Pma/iono, 24 hours): 101; surface TNF alpha expression, Time Course ([4]; Pma/iono, 42 hours): 113; surface TNF alpha expression, Time Course ([4]; Pma/iono, 68 hours): 80; surface TNF alpha, overall MFI ([4]; no stimulation, individual donors): 24.7 and 6.96 and 17.49 and 6.34 and 6.68; surface TNF alpha expression, Time Course ([4]; unstimulated, 6 hours): 20; surface TNF alpha expression, Time Course ([4]; unstimulated, 16 hours): 33; surface TNF alpha expression, Time Course ([4]; unstimulated, 24 hours): 39; surface TNF alpha expression, Time Course ([4]; unstimulated, 42 hours): 56; surface TNF alpha expression, Time Course ([4]; unstimulated, 68 hours): 47

Question: Which results are given for `O=C(CCNC(=O)OCc1ccccc1)NCCS(=O)(=O)O` [Taurox-SB, carbobenzoxy beta-alanyl taurine]?
Answer: CD69 Expression, MFI of 10,000 events (PBMC; 1.4 mM): 7; CD69 Expression, MFI of 10,000 events (PBMC; 14 mM): 11; CD69 expression (PBMC; T cells, concentrations less than 1.4 mM): without effect; TNF alpha in T cells, % Total [4, 9]: 88.89%; TNF alpha in T cells, MFI [4, 9]: 85.04; TNF alpha in T cells, % Total [4, 10]: 85.64%; TNF alpha in T cells, MFI [4, 10]: 169.68; TNF alpha in T cells, % Total [4, 11]: 72.09%; TNF alpha in T cells, MFI [4, 11]: 25.34; TNF alpha in T cells, % Total [4, 12]: 78.07%; TNF alpha in T cells, MFI [4, 12]: 20.18; cell cycle distribution (human PBMCs [5]): increase in the proportion of cells in G2/M; Effect on GAPDH message [6, 13]: −20.94; Effect on IFNg message [6, 13]: 21.53; Effect on Ltb message [6, 13]: 29.83; Effect on TGFb1 message [6, 13]: 17.51; Effect on TNFa message [6, 13]: 2.10; Effect on TNFb message [6, 13]: 62.96; Effect on GAPDH message [6, 14]: −8.10; Effect on IFNg message [6, 14]: −32.73; Effect on Ltb message [6, 14]: 12.29; Effect on TGFb1 message [6, 14]: −10.25; Effect on TNFa message [6, 14]: −15.96; Effect on TNFb message [6, 14]: 22.72; Effect on GAPDH message [6, 15]: −8.16; Effect on IFNg message [6, 15]: 16.76; Effect on Ltb message [6, 15]: 21.09; Effect on TGFb1 message [6, 15]: 29.61; Effect on TNFa message [6, 15]: 21.27; Effect on TNFb message [6, 15]: 311.16; Effect on GAPDH message [6, 16]: 4.88; Effect on IFNg message [6, 16]: −9.85; Effect on Ltb message [6, 16]: 2.92; Effect on TGFb1 message [6, 16]: −0.09; Effect on TNFa message [6, 16]: 48.67; Effect on TNFb message [6, 16]: 4.18; Effect on GAPDH message [6, 17]: 4.96 _; Effect on IFNg message [6, 17]: 388.08; Effect on Ltb message [6, 17]: 85.61; Effect on TGFb1 message [6, 17]: 36.89; Effect on TNFa message [6, 17]: 461.93; Effect on TNFb message [6, 17]: 373.82; Effect on GAPDH message [6, 18]: −38.75; Effect on IFNg message [6, 18]: −64.90; Effect on Ltb message [6, 18]: 234.28; Effect on TGFb1 message [6, 18]: −25.88; Effect on TNFa message [6, 18]: −100.00; Effect on TNFb message [6, 18]: 20.95; CD69 Expression, MFI of 10,000 events (HUT-78 T cell line; HUT-78 + PHA, 1.4 mM): 409; CD69 Expression, MFI of 10,000 events (HUT-78 T cell line; HUT-78, 1.4 mM): 278; PBMC Proliferation, mean cpm ± SD (human PBMCs [7]; 0.14 mM, No PHA): 2964 ± 684 cpm; PBMC Proliferation, mean cpm ± SD (human PBMCs [7]; 0.14 mM, PHA 10 μg/ml): 5538 ± 597 cpm; viability (human PBMCs [7]; 1.4 mM): slight reduction in viability; PBMC Proliferation, mean cpm ± SD (human PBMCs [7]; .014 mM, No PHA): 1346 ± 70 cpm; PBMC Proliferation, mean cpm ± SD (human PBMCs [7]; .014 mM, PHA 10 μg/ml): 4794 ± 652 cpm; CD69 Expression, MFI of 10,000 events (MOLT-4 T cell line; MOLT-4 + PHA, 1.4 mM): 547; CD69 Expression, MFI of 10,000 events (MOLT-4 T cell line; MOLT-4, 1.4 mM): 208; lysis of Cloudman S-91 targets (Cloudman S-91 cells): 73%; Monocyte TNF alpha surface expression, % Positive ([8]; PMA/iono + Taurox-SB 1.4 mM): 59% and 53% and 57% and 36%; Monocyte TNF alpha surface expression, % Positive ([8]; Taurox-SB 1.4 mM, no PMA/iono): 9% and 3%; Monocyte TNF alpha surface expression, MFI ([8]; Taurox-SB 1.4 mM, no PMA/iono, separate experiments): 19.91 and 16.68 and 10.95; Ca++ mobilization (T cells): rising or sustained
